Results as given in PubChem BioAssay AID493062 (The Scripps Research Institute Molecular Screening Center, 2011).

How the values were obtained:
2B4/MCL-1 = assay: MCL-1-selective apoptosis induction in 2B4 cells – cell-based, fluorescence, assay provider data, selectivity assay for MCL1-BIM inhibitor project, late-stage follow-up (AID 493062); conditions: 2B4/MCL-1 caspase activation fluorescence
2B4/BCL-2 = assay: as above; conditions: 2B4/MCL-1 caspase activation fluorescence

EC50 (2B4/MCL-1) | EC50 (2B4/BCL-2) | SMILES
> 25 µM | > 25 µM | O=C(Nc1ccc(F)cc1F)c1cc(-c2ccco2)nc2ccccc12
> 25 µM | > 25 µM | NS(=O)(=O)c1ccc(CCNC(=O)c2cc(-c3ccco3)nc3ccccc23)cc1
25 µM | 0.6 µM | Cc1cccc(NC(=O)c2cc(-c3ccco3)nc3ccc(Br)cc23)n1
> 25 µM | > 25 µM | CN(CC(=O)Nc1ccc(F)cc1)C(=O)c1cc(-c2ccco2)nc2ccccc12
> 25 µM | > 25 µM | CCCN(C(=O)c1cc(-c2ccco2)nc2ccccc12)c1c(N)n(Cc2ccccc2)c(=O)[nH]c1=O
> 25 µM | > 25 µM | CCCCn1c(N)c(N(CCC(C)C)C(=O)c2cc(-c3ccco3)nc3ccccc23)c(=O)[nH]c1=O
> 25 µM | > 25 µM | CCCC(=O)Nc1nnc(Cc2ccccc2)s1
> 25 µM | > 25 µM | Cc1csc(NC(=O)c2cc(-c3ccco3)nc3ccccc23)n1
> 25 µM | > 25 µM | CCCCCCNC(=O)c1cc(-c2ccco2)nc2ccccc12
> 25 µM | > 25 µM | COc1ccc(NC(=O)c2cc(-c3ccc(C)o3)nc3ccccc23)c(OC)c1
> 25 µM | > 25 µM | Cc1ccc(S(=O)(=O)N(C)C)cc1NC(=O)c1cc(-c2ccco2)nc2ccccc12
> 25 µM | > 25 µM | COc1ccc(Cc2nnc(NC(=O)Cc3cccc(Br)c3)s2)cc1OC
> 25 µM | > 25 µM | CCOC(=O)c1cc(-c2ccco2)nc2c1c(C)nn2-c1cccc(Cl)c1
> 25 µM | > 25 µM | CCN(CC)C(=O)COc1ccc2c(-c3ccc(OC)cc3)cc(=O)oc2c1
> 25 µM | > 25 µM | O=C(NC1CC1)c1cc(-c2ccco2)nc2ccccc12
> 25 µM | > 25 µM | CCN(CC)C(=O)COc1ccc2c(-c3ccccc3)cc(=O)oc2c1
> 25 µM | > 25 µM | O=C(NC(=S)Nc1cccc(S(=O)(=O)NC2=NCCC2)c1)c1cc(-c2ccco2)nc2ccccc12
0.8 µM | 1.5 µM | COc1ccc(Cc2nnc(NC(=O)CCc3ccco3)s2)cc1OC
> 25 µM | > 25 µM | CN(CCOc1ccccc1)C(=O)c1cc(-c2ccco2)nc2ccccc12
> 25 µM | 3 µM | O=C(Nc1ccccn1)c1cc(-c2ccco2)nc2ccc(Br)cc12
> 25 µM | > 25 µM | O=C(NC1CCC(O)CC1)c1cc(-c2ccco2)nc2ccccc12 (centres undefined)
> 25 µM | > 25 µM | Cc1cccc(NC(=O)c2cc(-c3ccco3)nc3ccccc23)n1
> 25 µM | > 25 µM | Cc1ccc(-c2cc(C(=O)N3CC(C)OC(C)C3)c3ccccc3n2)o1 (centres undefined)
> 25 µM | > 25 µM | COc1ccc(Cc2nnc(NC(=O)C3(c4ccccc4)CC3)s2)cc1OC
> 25 µM | > 25 µM | COc1ccc(Cc2nnc(CC(=O)Nc3cccs3)s2)cc1
> 25 µM | > 25 µM | CN(CC(=O)Nc1cccc(F)c1)C(=O)c1cc(-c2ccco2)nc2ccccc12

EC50 (2B4/MCL-1) | EC50 (2B4/BCL-2) | SMILES
> 25 µM | > 25 µM | COc1ccccc1CC(=O)Nc1nnc(Cc2ccc(OC)c(OC)c2)s1
> 25 µM | > 25 µM | Cc1ccc(-c2cc(C(=O)N3CCCC(C(F)(F)F)C3)c3ccccc3n2)o1 (centres undefined)
> 25 µM | > 25 µM | COc1ccc(-c2cc(=O)oc3cc(OCC(=O)N4CC4)ccc23)cc1
> 25 µM | > 25 µM | Cc1ccc(-c2cc(C(=O)NCC(c3ccccc3)N(C)C)c3ccccc3n2)o1 (centres undefined)
> 25 µM | > 25 µM | CCCCN(C(=O)c1cc(-c2ccco2)nc2ccccc12)c1c(N)n(CCC)c(=O)[nH]c1=O
> 25 µM | > 25 µM | COc1ccc(Cc2nnc(NC(=O)Cc3csc4ccccc34)s2)cc1OC
> 25 µM | > 25 µM | COc1ccc(Cc2nnc(NC(=O)Cc3ccc4c(c3)OCO4)s2)cc1OC
40 µM | 25 µM | Cc1cccc(NC(=O)c2cc(-c3ccc(C)o3)nc3ccccc23)n1
> 25 µM | > 25 µM | O=C(Nc1ccccc1N1CCOCC1)c1cc(-c2ccco2)nc2ccccc12
> 25 µM | > 25 µM | O=C(c1cc(-c2ccco2)nc2ccccc12)N1CCCC(C(F)(F)F)C1 (centres undefined)
10 µM | > 25 µM | O=C(Nc1cccnc1)c1cc(-c2ccco2)nc2ccc(Br)cc12
> 25 µM | > 25 µM | CCCCn1c(N)c(N(CCOC)C(=O)c2cc(-c3ccco3)nc3ccccc23)c(=O)[nH]c1=O
> 25 µM | > 25 µM | CCCCN(C(=O)c1cc(-c2ccco2)nc2ccccc12)c1c(N)n(CCCC)c(=O)[nH]c1=O
> 25 µM | > 25 µM | COc1ccc(Cc2nnc(NC(=O)Cc3ccccc3C)s2)cc1OC
> 25 µM | > 25 µM | O=C(Nc1nncs1)c1cc(-c2ccco2)nc2ccccc12
> 25 µM | > 25 µM | Cc1ccc(NC(=O)c2cc(-c3ccc(C)o3)nc3ccccc23)nc1
> 25 µM | > 25 µM | COCCN(C(=O)c1cc(-c2ccco2)nc2ccccc12)c1c(N)n(Cc2ccccc2)c(=O)[nH]c1=O
> 25 µM | > 25 µM | CN(C)C(=O)c1ccc(NC(=O)c2cc(-c3ccco3)nc3ccccc23)cc1
12 µM | 30 µM | COc1ccc(Cc2nnc(NC(=O)c3cc(-c4ccc(C)o4)nc4ccccc34)s2)cc1OC
> 25 µM | > 25 µM | COc1ccc(Cc2nnc(NC(=O)Cc3ccc(N(C)C)cc3)s2)cc1OC
> 25 µM | > 25 µM | Cc1ccc(-c2cc(C(=O)N3CCN(c4ncccn4)CC3)c3cc(Br)ccc3n2)o1
11 µM | 7.5 µM | COc1ccc(Cc2nnc(NC(=O)c3cc(-c4ccco4)nc4ccc(Br)cc34)s2)cc1OC
> 25 µM | > 25 µM | Cc1ccc(-c2cc(C(=O)N3CCN(c4ccccc4O)CC3)c3ccccc3n2)o1
> 25 µM | > 25 µM | Cc1nnc(NC(=O)c2cc(-c3ccco3)nc3ccccc23)s1
> 25 µM | > 25 µM | COc1ccc(NC(=O)c2cc(-c3ccco3)nc3ccccc23)cc1S(=O)(=O)N1CCOCC1

More lines, now with the values behind:

SMILES | EC50 (2B4/MCL-1) | EC50 (2B4/BCL-2)
COc1ccc(NC(=O)c2cc(-c3ccco3)nc3ccccc23)cn1 | > 25 µM | > 25 µM
O=C(Nc1nccs1)c1cc(-c2ccco2)nc2ccccc12 | > 25 µM | > 25 µM
CC(C)CCNC(=O)c1cc(-c2ccco2)nc2ccccc12 | > 25 µM | > 25 µM
O=C(Cc1cccs1)Nc1nnc(Cc2ccccc2)s1 | > 25 µM | > 25 µM
CCCn1c(N)c(N(CCOC)C(=O)c2cc(-c3ccco3)nc3ccccc23)c(=O)[nH]c1=O | > 25 µM | > 25 µM
CCC(=O)Nc1nnc(Cc2ccccc2)s1 | > 25 µM | > 25 µM
COc1ccc(Cc2nnc(NC(=O)Cc3sc(=S)[nH]c3C)s2)cc1OC | > 25 µM | > 25 µM
Cc1ccc2nc(NC(=O)c3cc(-c4ccco4)nc4ccccc34)sc2c1 | > 25 µM | > 25 µM
Cc1ccc(NC(=O)c2cc(-c3ccc(C)o3)nc3ccccc23)cc1 | > 25 µM | > 25 µM
CN(CCOc1ccc(Cl)cc1)C(=O)c1cc(-c2ccco2)nc2ccccc12 | > 25 µM | > 25 µM
CN(C)C(CNC(=O)c1cc(-c2ccco2)nc2ccccc12)c1ccccc1 (centres undefined) | > 25 µM | > 25 µM
Cc1ccc(-c2cc(C(=O)N3CCOCC3)c3ccccc3n2)o1 | > 25 µM | > 25 µM
CCN(CC)CCNC(=O)c1cc(-c2ccco2)nc2ccccc12 | > 25 µM | > 25 µM
COc1ccc(Cc2nnc(NC(=O)Cc3ccc(-c4ccccc4)cc3)s2)cc1OC | > 25 µM | > 25 µM
COc1ccc(Cc2nnc(NC(=O)Cc3cc(F)cc(F)c3)s2)cc1OC | > 25 µM | > 25 µM
COC(=O)C1CCN(C(=O)c2cc(-c3ccco3)nc3ccccc23)CC1 | > 25 µM | > 25 µM
O=C(c1cc(-c2ccco2)nc2ccccc12)N1CCN(c2ccc(F)cc2)CC1 | > 25 µM | > 25 µM
CCOC(=O)c1cc(-c2ccco2)nc2c1c(C)nn2-c1ccccc1 | > 25 µM | > 25 µM

SMILES | EC50 (2B4/MCL-1) | EC50 (2B4/BCL-2)
COc1ccc(NC(=O)c2cc(-c3ccco3)nc3ccccc23)cc1 | > 25 µM | > 25 µM
COc1cccc(CC(=O)Nc2nnc(Cc3ccc(OC)c(OC)c3)s2)c1 | > 25 µM | > 25 µM
O=C(NCCCN1CCOCC1)c1cc(-c2ccco2)nc2ccccc12 | > 25 µM | > 25 µM
COc1ccc(Cc2nnc(NC(=O)Cc3ccc(C)cc3)s2)cc1OC | > 25 µM | > 25 µM
COc1ccc(Cc2nnc(NC(=O)Cc3c[nH]c4ccccc34)s2)cc1OC | > 25 µM | > 25 µM
O=C(CCn1nnc2ccccc21)Nc1nnc(Cc2ccc(F)cc2)s1 | > 25 µM | > 25 µM
COc1ccc(CCNC(=O)c2cc(-c3ccco3)nc3ccccc23)cc1 | > 25 µM | > 25 µM
O=C(Nc1ccccc1F)c1cc(-c2ccco2)nc2ccccc12 | > 25 µM | > 25 µM
COc1ccc(CC(=O)Nc2nnc(Cc3ccc(OC)c(OC)c3)s2)cc1 | > 25 µM | > 25 µM
COc1ccc(NC(=O)c2cc(-c3ccc(C)o3)nc3ccccc23)cc1 | > 25 µM | > 25 µM
COc1ccc(Cc2nnc(NC(=O)Cc3ccsc3)s2)cc1OC | > 25 µM | > 25 µM
COc1ccc(Cc2nnc(NC(=O)C(F)c3ccccc3)s2)cc1OC (centres undefined) | > 25 µM | > 25 µM
Cc1ccc(-c2cc(C(=O)Nc3nccs3)c3ccccc3n2)o1 | > 25 µM | > 25 µM
COc1ccccc1NC(=O)c1cc(-c2ccc(C)o2)nc2ccccc12 | > 25 µM | > 25 µM
COc1ccc(Cc2nnc(NC(=O)Cc3cccnc3)s2)cc1OC | > 25 µM | > 25 µM
CC1CCCN(C(=O)c2cc(-c3ccco3)nc3ccccc23)C1 (centres undefined) | > 25 µM | > 25 µM
O=C(CCn1nnc2ccccc21)Nc1nnc(Cc2ccccc2)s1 | > 25 µM | > 25 µM
COc1ccc(Cc2nnc(NC(=O)Cc3cccs3)s2)cc1OC | > 25 µM | > 25 µM
